In US8003627B2, “Urokinase inhibitors” (Universiteit Antwerpen, priority 2005, dated 2011):
Where two headings read alike, the source gives them in different places.

Tests used:
uPA [1] = molecular target: T1, uPA (Homo sapiens, UniProt P00749); experiment: biochemical; assay type: biochemical; parameters: purchased Sigma-Aldrich
Experimental: The substrate was obtained from Chromogenix. The human enzyme was obtained from Sigma-Aldrich, the mouse uPA was obtained from Molecular Innovations.Inc (USA). […] A 50 mM Tris buffer, pH 8.8, was used. […] Activity measurements were routinely performed in duplicate. […] IC50 values were obtained by fitting the data with the 4 parameter logistics equation using Grafit 5. v=(vrange)/(1+exp(s*ln(abs(I0/IC50))))+back s: slope factor back: background v: rate I0: inhibitor concentration range: the fitted uninhibited value minus the background.
The equation assumes that y falls with increasing x.
(§1) Inhibitor stock solutions were prepared in DMSO and stored at −20° C. […] For a simple pseudo-first-order inactivation process, the activity after incubation with inhibitor (vi) varies with the inhibitor concentration (i) as described in the following equation: vi=v0·e^−kit, where v0 is the activity in absence of inhibitor, k is the second-order rate constant of inactivation, and t is the time.

uPA [2] = molecular target: T1, uPA; details: Tamura et al. 2000; cited from earlier work
plasmin = molecular target: T2, plasmin (Homo sapiens, UniProt P00747); experiment: Selectivity: plasmin inhibition, chromogenic substrate S-2366; assay type: biochemical
T2 construct: uPA mediates the proteolytic cleavage of plasminogen to give plasmin
T2 sequence (P00747 581-810 limits assumed, species assumed): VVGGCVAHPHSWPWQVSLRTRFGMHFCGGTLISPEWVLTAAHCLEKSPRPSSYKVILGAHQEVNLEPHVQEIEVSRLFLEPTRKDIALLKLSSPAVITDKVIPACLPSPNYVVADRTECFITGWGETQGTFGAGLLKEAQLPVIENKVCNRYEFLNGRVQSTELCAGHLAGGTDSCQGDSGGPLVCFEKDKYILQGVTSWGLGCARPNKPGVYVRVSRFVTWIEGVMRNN
T2 sequence (P00747 97-580 partner limits assumed, species assumed): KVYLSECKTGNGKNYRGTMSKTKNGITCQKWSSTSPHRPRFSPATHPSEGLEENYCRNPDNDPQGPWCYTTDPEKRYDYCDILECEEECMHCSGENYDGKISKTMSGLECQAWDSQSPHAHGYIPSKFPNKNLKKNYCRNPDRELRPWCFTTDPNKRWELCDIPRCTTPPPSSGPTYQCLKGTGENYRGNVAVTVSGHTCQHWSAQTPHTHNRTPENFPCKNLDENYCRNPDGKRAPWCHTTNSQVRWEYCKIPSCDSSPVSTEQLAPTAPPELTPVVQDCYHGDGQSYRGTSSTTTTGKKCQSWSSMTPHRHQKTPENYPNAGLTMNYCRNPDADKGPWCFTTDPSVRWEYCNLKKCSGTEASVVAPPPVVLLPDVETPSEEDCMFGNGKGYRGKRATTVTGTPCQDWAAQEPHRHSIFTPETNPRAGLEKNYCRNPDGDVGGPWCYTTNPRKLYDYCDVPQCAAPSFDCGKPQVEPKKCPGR
Experimental: (§2) The IC50 values for plasmin, tPA, thrombin and FXa were determined in the same way as for uPA. […] FX is activated with Russel's Viper Venom.
(§3) Approximately 5 mU of enzyme, and 145 μl of buffer. For tPA and thrombin Tris buffer, pH 8.3, for FXa, Tris buffer pH 8.3 with 2.5 mM CaCl2, for plasmin Tris buffer pH 7.4, and for trypsin Tris buffer pH 8.2 was used. The selectivity index was calculated as (IC50 Enzyme X)/IC50 uPA, where X is tPA, thrombin, plasmin or FXa.

tPA = tPA (Homo sapiens, UniProt P00750); experiment: Selectivity: tPA inhibition, chromogenic substrate S-2288; assay type: biochemical; details: 1.25 mM substrate, Tris pH 8.3
Chain of tPA (P00750 36-562, species assumed): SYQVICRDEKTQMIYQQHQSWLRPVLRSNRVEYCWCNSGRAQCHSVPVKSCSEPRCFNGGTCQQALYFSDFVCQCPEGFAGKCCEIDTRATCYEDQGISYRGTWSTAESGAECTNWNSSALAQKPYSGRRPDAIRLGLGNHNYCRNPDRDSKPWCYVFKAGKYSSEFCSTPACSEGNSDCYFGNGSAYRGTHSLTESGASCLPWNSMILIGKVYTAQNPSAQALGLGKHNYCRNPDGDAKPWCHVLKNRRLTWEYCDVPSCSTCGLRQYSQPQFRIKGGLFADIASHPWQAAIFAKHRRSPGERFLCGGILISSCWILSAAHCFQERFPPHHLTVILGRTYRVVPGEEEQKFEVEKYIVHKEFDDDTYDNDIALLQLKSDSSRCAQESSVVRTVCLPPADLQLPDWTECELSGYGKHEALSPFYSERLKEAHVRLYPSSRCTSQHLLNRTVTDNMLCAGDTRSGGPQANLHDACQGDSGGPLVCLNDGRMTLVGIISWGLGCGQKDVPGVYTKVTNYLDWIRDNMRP
Experimental: as §2, §3

thrombin = thrombin (Homo sapiens, UniProt P00734); experiment: Selectivity: thrombin inhibition, chromogenic substrate S-2366; assay type: biochemical
Experimental: as §2, §3

FXa = FXa (Homo sapiens, UniProt P00742); experiment: Selectivity: FXa inhibition, chromogenic substrate S-2772; assay type: biochemical; details: for inhibition at 250 µM: read-out: % inhibition at given concentration, FXa
Chain of FXa (P00742 235-488 limits assumed): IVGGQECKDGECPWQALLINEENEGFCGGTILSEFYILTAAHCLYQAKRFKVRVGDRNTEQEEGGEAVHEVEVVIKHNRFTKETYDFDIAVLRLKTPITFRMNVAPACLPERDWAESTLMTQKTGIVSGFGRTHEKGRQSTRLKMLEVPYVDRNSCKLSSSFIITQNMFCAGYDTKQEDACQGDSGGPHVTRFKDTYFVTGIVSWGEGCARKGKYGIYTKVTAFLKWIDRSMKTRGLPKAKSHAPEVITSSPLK
Chain of FXa (P00742 41-179 partner limits assumed): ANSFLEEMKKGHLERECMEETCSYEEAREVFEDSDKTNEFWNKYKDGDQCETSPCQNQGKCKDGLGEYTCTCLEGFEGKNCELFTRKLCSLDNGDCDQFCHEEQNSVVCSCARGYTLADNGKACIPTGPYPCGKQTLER
Experimental: as §2, §3

uPA [3] = molecular target: T1, uPA; assay type: biochemical; parameters: purchased Sigma-Aldrich; details: apparent second order rate constant, 250 μM substrate
Experimental: as §1

trypsin = molecular target: T3, trypsin (Bos taurus, UniProt P00760); experiment: Selectivity: trypsin inhibition, chromogenic substrate BAPNA; assay type: biochemical; details: 425 μM substrate, Tris pH 8.2
T3 sequence (P00760 24-246): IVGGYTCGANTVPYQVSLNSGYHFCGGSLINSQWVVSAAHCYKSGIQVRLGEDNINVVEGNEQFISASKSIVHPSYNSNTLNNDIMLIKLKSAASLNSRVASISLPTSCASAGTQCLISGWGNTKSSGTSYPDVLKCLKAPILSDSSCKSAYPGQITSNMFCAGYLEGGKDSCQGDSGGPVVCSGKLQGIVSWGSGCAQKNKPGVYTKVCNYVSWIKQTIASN
Experimental: as §2, §3

[4] = 580 μM substrate, Tris pH 7.4, read-out: IC50 (μM) Plasmin
[5] = 580 μM substrate, Tris pH 8.3, read-out: IC50 (μM) Thrombin
[6] = 522 μM substrate, Tris pH 8.3 with […] CaCl2, read-out: IC50 (μM) FXa
[7] = 15-min pre-incubation at 37° C, 250 μM S-2444, Tris pH 8.8, read-out: IC50 (nM) uPA

Compound | IC50 (plasmin; [4]) [µM] | IC50 (tPA) [µM] | IC50 (thrombin; [5]) [µM] | IC50 (FXa; [6]) [µM] | also measured
N=C(N)Nc1ccc(CC(NC(=O)NCc2ccccc2)P(=O)(Oc2ccccc2)Oc2ccccc2)cc1 (centres unmarked) [Compound 39b, Diphenyl 1-(3-benzylureido)-2-(4-guanidinophenyl)ethylphosphonate] |  |  |  |  | IC50 (uPA [1]): 43900 ± 3900 nM
Z-D-Ser-Ala-Arginal |  |  |  |  | IC50 (uPA [2]): 0.019 µM; selectivity ratio toward tPA (uPA [2]): more than 130
N=C(N)Nc1ccc(CC(NC(=O)OCc2ccccc2)P(=O)(Oc2ccccc2)Oc2ccccc2)cc1 (centres unmarked) [Compound 7b, Diphenyl 1-(benzyloxycarbonylamino)-2-(4-guanidinophenyl)-ethanephosphonate] | 3 ± 0.6 | 12 ± 0.8 | 2.4 ± 0.4 | 100 ± 20 | 
CCOC(=O)NC(Cc1ccc(NC(=N)N)cc1)P(=O)(Oc1ccccc1)Oc1ccccc1 (centres unmarked) [Compound 35c, Ethyl 1-(diphenoxyphosphoryl)-2-(4-guanidinophenyl)ethylcarbamate] | 16 ± 3 | 57 ± 14 | 3.8 ± 0.2 |  | IC50 (uPA [1]; [7]): 8 ± 3 nM; kapp (M^−1 · s^−1) uPA (uPA [3]): 40000 M⁻¹ s⁻¹
COC(=O)NC(Cc1ccc(NC(=N)N)cc1)P(=O)(Oc1ccccc1)Oc1ccccc1 (centres unmarked) [Compound 35a, Methyl 1-(diphenoxyphosphoryl)-2-(4-guanidinophenyl)ethylcarbamate] |  | 23 ± 6 |  |  | IC50 (uPA [1]; [7]): 3.1 ± 0.5 nM; IC50 (plasmin): 12.8 ± 2 µM; IC50 (thrombin): 16.6 ± 2.3 µM; kapp (M^−1 · s^−1) uPA (uPA [3]): 62000 M⁻¹ s⁻¹
CS(=O)(=O)NC(Cc1ccc(NC(=N)N)cc1)P(=O)(Oc1ccccc1)Oc1ccccc1 (centres unmarked) [Compound 7g, Diphenyl 1-(methylsulfonylamino)-2-(4-guanidinophenyl)-ethanephosphonate] | 11 ± 1 | 8 ± 2 |  |  | IC50 (thrombin): ~125 µM; IC50 (FXa): ~250 µM
Diphenyl 1-(naphthalenesulfonylamino)-2-(4-guanidinophenyl)-ethanephosphonate [Compound 7e] | 1.2 ± 0.1 | 44 ± 10 | 8.1 ± 0.8 | 27 ± 2 | IC50 (trypsin): 0.28 ± 0.05 µM
CC(=O)Nc1ccc(OP(=O)(Oc2ccc(NC(C)=O)cc2)C(Cc2ccc(NC(=N)N)cc2)NC(=O)OCc2ccccc2)cc1 (centres unmarked) [Compound 9b, Di-(4-acetamidophenyl) 1-(benzyloxycarbonylamino)-2-[(4-guanidino)phenyl]ethanephosphonate] | 0.9 ± 0.2 | 7 ± 1 | 0.39 ± 0.03 | 100 ± 24 | IC50 (uPA [1]; [7]): 4.2 ± 0.9 nM
N=C(N)Nc1ccc(CC(NC(=O)c2ccccc2)P(=O)(Oc2ccccc2)Oc2ccccc2)cc1 (centres unmarked) [Compound 7c, Diphenyl 1-(benzoylamino)-2-(4-guanidinophenyl)-ethanephosphonate] | 14 ± 1 | 125 |  |  | IC50 (uPA [1]; pH 8.8, read-out: IC50 (nM) uPA): 114 ± 11 nM; IC50 (FXa): > 250 µM
CCC(NC(=O)OCc1ccccc1)(c1ccc(C(=N)N)cc1)P(=O)(Oc1ccccc1)Oc1ccccc1 (centres unmarked) [Compound 8c, Diphenyl 1-(N-benzyloxycarbonylamino)-1-(4-amidinophenyl)propanephosphonate] | 6.2 ± 0.4 | 68 ± 9 | 17 ± 2 | 13.7 ± 1.3 | IC50 (trypsin): 3.5 ± 0.2 µM
N=C(N)c1ccc(CC(NC(=O)OCc2ccccc2)P(=O)(Oc2ccccc2)Oc2ccccc2)cc1 (centres unmarked) [Compound 8b, Diphenyl 1-(N-benzyloxycarbonylamino)-2-(4-amidinophenyl)ethanephosphonate] | 1.2 ± 0.1 | 4 ± 2 | 20 ± 2 |  | inhibition at 250 µM (FXa): 65%
CC(=O)NC(Cc1ccc(NC(=N)N)cc1)P(=O)(Oc1ccccc1)Oc1ccccc1 (centres unmarked) [Compound 41, Diphenyl 1-acetamido-2-(4-guanidinophenyl)ethylphosphonate] | 57 ± 1.3 |  | 32.2 ± 1.4 |  | IC50 (uPA [1]): 9.9 ± 0.8 nM
CC(=O)Nc1ccc(OP(=O)(Oc2ccc(NC(C)=O)cc2)C(Cc2ccc(NC(=N)N)cc2)NS(C)(=O)=O)cc1 (centres unmarked) [Compound 9c, Di-(4-acetamidophenyl) 1-(methylsulfonylamino)-2-(4-guanidinophenyl)-ethanephosphonate] | 2 ± 0.4 | 3.7 ± 0.4 | 2.35 ± 0.06 |  | IC50 (uPA [1]; [7]): 3.5 ± 0.5 nM; inhibition at 250 µM (FXa): 55%
N=C(N)Nc1ccc(CC(N)P(=O)(Oc2ccccc2)Oc2ccccc2)cc1 (centres unmarked) [Compound 34d, Diphenyl 1-amino-2-(4-guanidinophenyl)ethylphosphonate] |  |  |  |  | IC50 (uPA [1]; [7]): 1600 ± 130 nM
N=C(N)c1ccc(C(NC(=O)OCc2ccccc2)P(=O)(Oc2ccccc2)Oc2ccccc2)cc1 (centres unmarked) [Compound 8a, Diphenyl 1-(N-benzyloxycarbonylamino)-1-(4-amidinophenyl)methanephosphonate] | 3.6 ± 0.4 | 66 ± 7 | 0.288 ± 0.006 | 6 ± 0.2 | 
CNC(=O)NC(Cc1ccc(NC(=N)N)cc1)P(=O)(Oc1ccccc1)Oc1ccccc1 (centres unmarked) [Compound 39a, Diphenyl 2-(4-guanidinophenyl)-1-(3-methylureido)ethylphosphonate] |  |  |  |  | IC50 (uPA [1]): 101000 ± 6800 nM
Cc1ccccc1S(=O)(=O)NC(Cc1ccc(NC(=N)N)cc1)P(=O)(Oc1ccccc1)Oc1ccccc1 (centres unmarked) [Compound 7d, Diphenyl 1-(o-toluenesulfonylamino)-2-(4-guanidinophenyl)-ethanephosphonate] | 17 ± 2 | 7.3 ± 0.5 | 11.9 ± 1.7 |  | IC50 (trypsin): 0.17 ± 0.01 µM; % inhibition at given concentration, FXa (FXa; at 62 μM): 59% @
CC(C)c1ccc(C(C)C)c(S(=O)(=O)NC(Cc2ccc(NC(=N)N)cc2)P(=O)(Oc2ccccc2)Oc2ccccc2)c1C(C)C (centres unmarked) [Compound 7f, Diphenyl 1-(2,3,6-tri-isopropylbenzenesulfonyl)amino-2-(4-guanidinophenyl)-ethanephosphonate] | ~125 | 16 ± 1 |  | 20 ± 2 | % inhibition at given concentration, Thrombin (thrombin; at 250 μM): 60% @; IC50 (trypsin): 5.6 ± 0.04 µM
